A short description of data set [1]: LNP size and PDI by dynamic laser light scattering. The data set is classed as physicochemical. To be noted: LNP: 50% cationic lipid, 38.5% cholesterol, 10% DSPC, 1.5% DMG-PEG2000; Ffluc mRNA. Put shortly: (§1)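 LNPs of cationic lipid/cholesterol/DSPC/DMG-PEG2000 at 50/38.5/10/1.5 mol% in ethanol, mixed with Ffluc mRNA at 0.2 mg/mL in 10 mM pH 4.0 citrate via T-mixer at 40 mL/min. Dialyzed overnight against 50 mM Tris-buffered saline pH 7.4 and sieved; PDI by dynamic light scattering, encapsulation by Ribogreen.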

For data set [2], the system named is mice. Kind of data set: In vivo delivery of Ffluc mRNA LNP in mice, intramuscular administration, luminescence relative to MC3. On the set-up: species or system mice (female Balb/C). To be noted: fold change in luminescence intensity relative to MC3; 50 μL of 0.1 mg/mL mRNA LNP into right thigh; 6 h after injection. The protocol:
The prepared encapsulation solution was applied to mice in the following manner, and its delivery efficiency in mice was tested. Among them, DLin-MC3-DMA (MC3) was a cationic liposome for delivering small nucleic acids that was approved by the FDA for marketing in 2018, which has high nucleic acid drug delivery efficiency and biosafety, and was usually used as the industry gold standard in the screening process of cationic lipids. In the evaluation of mice experiments, the ratio of nucleic acid delivery efficiency normalized to MC3 was greater than 0.1, which was considered to be a cationic lipid with high delivery efficiency.
The LNP solution was diluted with 50 mM TBS, pH 7.4 to a concentration of 0.1 mg/mL mRNA.
2. The mice involved in this study were female Balb/C, weighing 18-22 g, 6-8 weeks old, with 5 mice in each group.
3. The dosing solution was kept at 4° C. prior to injection.
4. 50 μL of LNP solution was injected into the right thigh of the mice.
5. The mice were injected intraperitoneally with 200 μL of 1.5 mg/mL D-luciferin solution 6 h after injection.
6. The in vivo luminescence images of the mice were obtained using the IVIS system (Aniview).
7. The luminescence intensity of each mice was measured using Aniview software.
8. MC3 lipid nanoparticles were used as a positive control. The in vivo efficacy of each cationic lipid tested was recorded as the fold change in luminescence intensity relative to MC3 (ratio normalized to MC3).

A short description of data set [3]: mRNA encapsulation efficiency of LNP by Ribogreen assay. To be noted: LNP: 50% cationic lipid, 38.5% cholesterol, 10% DSPC, 1.5% DMG-PEG2000; Ffluc mRNA. It counts as physicochemical. Put shortly:
as §1

For data set [4], the system named is mice. The data set can be described thus: In vivo delivery of Ffluc mRNA LNP in mice, intravenous administration, luminescence relative to MC3. To be noted: fold change in luminescence intensity relative to MC3; 0.06 mg/kg tail vein; 6 h after injection. On the set-up: species or system mice (female Balb/C). The method in brief:
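Female Balb/C mice (18-22 g, 6-8 weeks, n=5) received Ffluc mRNA LNP at 0.06 mg/kg by tail vein in 50 mM TBS pH 7.4. Six hours later, intraperitoneal D-luciferin was given and whole-body luminescence imaged, with each lipid reported as fold change relative to MC3 LNP.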

Molecules are shown by their SMILES.

On to `CCCCCCCC/C(=C/C(=O)OCCCCCCCCN(CCCO)CCCCCCCCOC(=O)/C=C(\CCCCC)CCCCCCCC)CCCCC` [CPL-113-01, ((3-hydroxypropyl)azanediyl)bis(octane-8,1-diyl) (2E,2′E)-bis(3-pentylundec-2-enoate)], for which, in data set [1], the PDI amounted to 0.24 and the “Size (nm)” value amounted to 97.7 nm. In addition, in the data set on mice [2], the “In Vivo Efficacy Normalized To Mc3 In Mice (Intramuscular Injection)” value worked out at 1.65. Further, in data set [3], the “Encapsulation Rate” value amounted to 96%. In the data set with mice [4], the “In Vivo Efficacy Normalized To Mc3 In Mice (Intravenous Injection)” value worked out at 2.52.
On to `CCCCCCCC/C(=C/C(=O)OCCCCCCN(CCCO)CCCCCCOC(=O)/C=C(\CCCCC)CCCCCCCC)CCCCC` [CPL-069-01, ((3-hydroxypropyl)azanediyl)bis(hexane-6,1-diyl) (2E,2′E)-bis(3-pentylundec-2-enoate)], for which, in data set [1], the PDI is 0.126 and the “Size (nm)” value came to 84.59 nm. Moreover, the “In Vivo Efficacy Normalized To Mc3 In Mice (Intramuscular Injection)” value with mice [2] worked out at 1.72. For the same compound, the “Encapsulation Rate” value in data set [3] was found to be 97%. The “In Vivo Efficacy Normalized To Mc3 In Mice (Intravenous Injection)” value in the data set on mice [4] is 2.70.
Regarding `CCCCCCCCCC/C(=C\C(=O)OCCCCCCN(CCCO)CCCCCCOC(=O)/C=C(/CCCCC)CCCCCCCCCC)CCCCC` [CPL-070, ((3-hydroxypropyl)azanediyl)bis(hexane-6,1-diyl) (2Z,2′Z)-bis(3-pentyltridec-2-enoate)], in data set [1], the PDI is 0.2173 and the “Size (nm)” value was found to be 100.4 nm. Besides, the “In Vivo Efficacy Normalized To Mc3 In Mice (Intramuscular Injection)” value in the data set on mice [2] is 1.85. Besides, the “Encapsulation Rate” value in data set [3] is 95%. The “In Vivo Efficacy Normalized To Mc3 In Mice (Intravenous Injection)” value with mice [4] is recorded as 3.74.
Turning to `CCCCCC/C(=C/C(=O)OCCCCCCCCCCCN(CCCO)CCCCCCCCCCCOC(=O)/C=C(\CCCC)CCCCCC)CCCC` [CPL-174-01, ((3-hydroxypropyl)azanediyl)bis(undecane-11,1-diyl) (2E,2′E)-bis(3-butylnon-2-enoate)], in data set [1], the PDI is recorded as 0.18 and the “Size (nm)” value amounted to 112 nm. Besides, the “In Vivo Efficacy Normalized To Mc3 In Mice (Intramuscular Injection)” value in the data set with mice [2] is 1.20. Also, the “Encapsulation Rate” value in data set [3] came out at 97%. Further, in the data set on mice [4], the “In Vivo Efficacy Normalized To Mc3 In Mice (Intravenous Injection)” value is 2.32.
For the compound `CCCCCCCC/C(=C/C(=O)OCCCCCCN(CCCO)CCCCCCOC(=O)/C=C(\CCCC)CCCCCCCC)CCCC` [CPL-065, ((3-hydroxypropyl)azanediyl)bis(hexane-6,1-diyl) (2E,2′E)-bis(3-butylundec-2-enoate)], in data set [1], the PDI worked out at 0.1898 and the “Size (nm)” value is given as 83.7 nm. In addition, in data set [3], the “Encapsulation Rate” value is recorded as 95%. Also, the “In Vivo Efficacy Normalized To Mc3 In Mice (Intravenous Injection)” value in the data set with mice [4] was determined as 1.62.
Take `CCCCC/C=C\C/C=C\CCCCCCCC(=O)OCC(COC(=O)/C=C(\CCCC)CCCCC)COC(=O)OCCN(C)C` (stereo not shown) [CPL-199, 3-(((E)-3-butyloct-2-enoyl)oxy)-2-((((2-(dimethylamino)ethoxy)carbonyl)oxy)methyl)propyl(9Z,12Z)-octadeca-9,12-dienoate]: in data set [1], the PDI amounted to 0.1394 and the “Size (nm)” value was found to be 86.92 nm. Also, the “Encapsulation Rate” value in data set [3] worked out at 96%. The “In Vivo Efficacy Normalized To Mc3 In Mice (Intravenous Injection)” value in the data set on mice [4] was 0.12.
Turning to `CCCCC/C=C\C/C=C\CCCCCCCC(=O)OCC(COC(=O)/C=C(/CCCCCCCC)CCCCCCCCCC)COC(=O)OCC1CCN(C)C1` (stereo not shown) [CPL-343, 3-((((1-methylpyrrolidin-3-yl)methoxy)carbonyl)oxy)-2-((((Z)-3-octyltridec-2-enoyl)oxy)methyl)propyl(9Z,12Z)-octadeca-9,12-dienoate], in data set [1], the PDI is given as 0.1584 and the “Size (nm)” value came out at 116.3 nm. In data set [3], the “Encapsulation Rate” value turned out to be 85%. The “In Vivo Efficacy Normalized To Mc3 In Mice (Intravenous Injection)” value in the data set on mice [4] stood at 0.44.
On to `CCCCCCC(=CC(=O)OCCCCCN(CCCO)CCCCCOC(=O)C=C(CCCCCC)CCCCCC)CCCCCC` [CPL-049, ((3-hydroxypropyl)azanediyl)bis(pentane-5,1-diyl)(2E,2′E)-bis(3-hexylnon-2-enoate)], for which, in data set [1], the PDI is listed as 0.1651 and the “Size (nm)” value turned out to be 101.6 nm. The “Encapsulation Rate” value in data set [3] is on record as 90%. The “In Vivo Efficacy Normalized To Mc3 In Mice (Intravenous Injection)” value in the data set with mice [4] is listed as 1.88.
Turning to `CCCCC/C=C\C/C=C\CCCCCCCC(=O)OCC(COC(=O)/C=C(\CCCCCCC)CCCCCCCCCC)COC(=O)OCCCN(C)C` (stereo not shown) [CPL-231, 3-(((3-(dimethylamino)propoxy)carbonyl)oxy)-2-((((E)-3-heptyltridec-2-enoyl)oxy)methyl)propyl(9Z,12Z)-octadeca-9,12-dienoate], in data set [1], the PDI worked out at 0.1118 and the “Size (nm)” value came to 69.42 nm. The “Encapsulation Rate” value in data set [3] worked out at 95%. Also, the “In Vivo Efficacy Normalized To Mc3 In Mice (Intravenous Injection)” value in the data set on mice [4] is 0.55.
For `CCCCC/C=C\C/C=C\CCCCCCCC(=O)OCC(COC(=O)/C=C(/CCCC)CCCCCC)COC(=O)OCCCN(C)C` (stereo not shown) [CPL-218, 3-(((Z)-3-butylnon-2-enoyl)oxy)-2-((((3-(dimethylamino)propoxy)carbonyl)oxy)methyl)propyl(9Z,12Z)-octadeca-9,12-dienoate], in data set [1], the PDI came to 0.1194 and the “Size (nm)” value is listed as 114.4 nm. In data set [3], the “Encapsulation Rate” value was found to be 87%. For the same compound, in the data set on mice [4], the “In Vivo Efficacy Normalized To Mc3 In Mice (Intravenous Injection)” value worked out at 0.19.
As for `CCCCC/C=C\C/C=C\CCCCCCCC(=O)OCC(COC(=O)/C=C(/CCCC)CCCCCC)COC(=O)OCC1CCCN(C)C1` (stereo not shown) [CPL-372, 3-(((Z)-3-butylnon-2-enoyl)oxy)-2-(((((1-methylpiperidin-3-yl)methoxy)carbonyl)oxy)methyl)propyl(9Z,12Z)-octadeca-9,12-dienoate], in data set [1], the PDI is 0.1182 and the “Size (nm)” value amounted to 90.88 nm. The “Encapsulation Rate” value in data set [3] was 98%. Besides, the “In Vivo Efficacy Normalized To Mc3 In Mice (Intravenous Injection)” value in the data set with mice [4] was found to be 1.01.
On to `CCCCC/C=C\C/C=C\CCCCCCCC(=O)OCC(COC(=O)/C=C(\CCC)CCCCCC)COC(=O)OCC1CCN(C)C1` (stereo not shown) [CPL-324, 3-((((1-methylpyrrolidin-3-yl)methoxy)carbonyl)oxy)-2-((((E)-3-propylnon-2-enoyl)oxy)methyl)propyl(9Z,12Z)-octadeca-9,12-dienoate], for which, in data set [1], the PDI is given as 0.1961 and the “Size (nm)” value came out at 99.42 nm. Besides, in data set [3], the “Encapsulation Rate” value is recorded as 95%. Besides, the “In Vivo Efficacy Normalized To Mc3 In Mice (Intravenous Injection)” value in the data set with mice [4] is on record as 0.31.
Take `CCCCCCCC/C(=C\C(=O)OCCCCN(CCCO)CCCCOC(=O)/C=C(/CCCCCCC)CCCCCCCC)CCCCCCC` [CPL-032, ((3-hydroxypropyl)azanediyl)bis(butane-4,1-diyl)(2Z,2′Z)-bis(3-heptylundec-2-enoate)]: in data set [1], the PDI was found to be 0.1692 and the “Size (nm)” value was 90.11 nm. Further, the “Encapsulation Rate” value in data set [3] is on record as 91%. In addition, the “In Vivo Efficacy Normalized To Mc3 In Mice (Intravenous Injection)” value in the data set on mice [4] is reported as 1.18.
Regarding `CCCCC/C=C\C/C=C\CCCCCCCC(=O)OCC(COC(=O)/C=C(\CCCCCCC)CCCCCCCC)COC(=O)OCCCCN(C)C` (stereo not shown) [CPL-252], in data set [1], the PDI was found to be 0.1369 and the “Size (nm)” value is given as 86.5 nm. In addition, the “Encapsulation Rate” value in data set [3] is recorded as 98%. The “In Vivo Efficacy Normalized To Mc3 In Mice (Intravenous Injection)” value in the data set with mice [4] is 0.34.
Take `CCCCCC/C(=C/C(=O)OCCCCCCCCN(CCCO)CCCCCCCCOC(=O)/C=C(\CCCCC)CCCCCC)CCCCC` [CPL-112, ((3-hydroxypropyl)azanediyl)bis(octane-8,1-diyl)(2E,2′E)-bis(3-pentylnon-2-enoate)]: in data set [1], the PDI came to 0.1173 and the “Size (nm)” value was 85.04 nm. For the same compound, the “Encapsulation Rate” value in data set [3] was 95%. For the same compound, the “In Vivo Efficacy Normalized To Mc3 In Mice (Intravenous Injection)” value with mice [4] was found to be 2.14.
